This passage reports IC50, Kp uu and efflux ratio results from US12404263B2, “ASK1 inhibiting agents” (BIOGEN MA INC., priority 2018, dated 2025).

Data set [1] deals with T1, ASK1 T838 auto phosphorylation (Homo sapiens, UniProt Q99683).
T1 construct: transfected with 9 μg of ASK1-V5 tagged full length plasmid; expressed in transfected cells; host or cells: HEK-293T
T1 sequence (Q99683 1-1374): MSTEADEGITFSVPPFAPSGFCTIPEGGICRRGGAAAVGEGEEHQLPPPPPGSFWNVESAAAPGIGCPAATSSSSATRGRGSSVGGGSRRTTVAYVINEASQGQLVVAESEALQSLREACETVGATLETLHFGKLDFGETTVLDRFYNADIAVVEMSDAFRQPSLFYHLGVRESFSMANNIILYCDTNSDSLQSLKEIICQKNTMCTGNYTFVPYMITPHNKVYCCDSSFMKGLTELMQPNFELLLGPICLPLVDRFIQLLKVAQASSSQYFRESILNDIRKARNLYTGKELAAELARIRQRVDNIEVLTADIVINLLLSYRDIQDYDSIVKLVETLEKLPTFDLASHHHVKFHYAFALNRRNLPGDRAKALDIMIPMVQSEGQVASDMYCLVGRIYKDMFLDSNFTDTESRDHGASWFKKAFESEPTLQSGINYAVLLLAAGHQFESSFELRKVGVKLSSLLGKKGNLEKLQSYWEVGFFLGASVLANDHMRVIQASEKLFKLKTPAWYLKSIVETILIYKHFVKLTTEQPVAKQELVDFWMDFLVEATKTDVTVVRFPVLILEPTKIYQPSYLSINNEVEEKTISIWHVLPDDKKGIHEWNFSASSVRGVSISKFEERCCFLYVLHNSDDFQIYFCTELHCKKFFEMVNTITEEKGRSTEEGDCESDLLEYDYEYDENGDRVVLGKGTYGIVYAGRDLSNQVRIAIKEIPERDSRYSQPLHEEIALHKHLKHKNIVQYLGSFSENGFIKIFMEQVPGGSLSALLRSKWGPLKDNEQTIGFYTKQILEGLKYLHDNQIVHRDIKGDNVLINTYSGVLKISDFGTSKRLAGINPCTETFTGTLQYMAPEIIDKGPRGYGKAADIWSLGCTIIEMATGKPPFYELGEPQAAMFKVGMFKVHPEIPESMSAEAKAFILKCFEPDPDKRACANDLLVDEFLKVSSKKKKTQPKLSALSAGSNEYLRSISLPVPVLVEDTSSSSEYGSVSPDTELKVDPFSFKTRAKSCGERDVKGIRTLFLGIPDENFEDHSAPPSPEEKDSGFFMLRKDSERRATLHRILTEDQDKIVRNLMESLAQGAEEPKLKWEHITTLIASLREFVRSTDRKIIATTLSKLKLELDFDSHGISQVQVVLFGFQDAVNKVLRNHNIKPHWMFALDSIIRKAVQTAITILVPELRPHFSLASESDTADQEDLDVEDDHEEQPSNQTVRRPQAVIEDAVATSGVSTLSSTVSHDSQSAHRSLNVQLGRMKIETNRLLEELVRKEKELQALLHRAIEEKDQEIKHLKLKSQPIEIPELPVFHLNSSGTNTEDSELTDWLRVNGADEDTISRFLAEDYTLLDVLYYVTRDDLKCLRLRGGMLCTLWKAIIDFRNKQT
As to the kind of experiment: ASK1 (AUTO PHOS T838) assay in HEK-293T cells, MSD format. The format is cell-based. Conditions: HEK-293T cells transfected with ASK1-V5, 1 hr compound incubation; read-out: IC50. How it is done: ASK1 T838 auto phosphorylation was measured in HEK-293T cells using MSD assay format. HEK 293T cells were seeded in 15 cm plates at a density of 18 million cells and 20 mL DMEM with 10% FBS, Pen/Strep media. The plates were incubated at 37° C. overnight. Media on plates was changed to OPTI-MEM, serum free media and cells were transfected with 9 μg of ASK1-V5 tagged full length plasmid using Lipofectamine 2000 (Invitrogen) and the plates were incubated at 37° C. overnight. Cells were trypsinized, counted on Nexcellometer and plated into 96 well tissue culture plates with 100,000 cells/well and 200 μL media. Cells were incubated for 4 hr at 37° C. then ASK1 compounds were added using a HP 300e. Compounds were tested at 20 μM with 3 fold, 10 point dilution points then incubated for 1 hr at 37° C. A lysis buffer (Cell Signaling) was prepared with protease and phosphatase inhibitor and maintained at 4° C. until use. Media from cells was discarded and 120 μL of cold lysis buffer was added to the cells, the plate was shaken 4° C. for 1 hr. Lysate was mixed using Apricot liquid handler; aspirating up and down 16 times at high speed using 50 μL volume. 50 μL of cell lysates were transferred to a pre-coated MSD plates containing mouse anti-V5 antibody (1:500 dilution) and washed 3× with MSD wash buffer (TBST) and blocked with a 3% BSA solution. Plates were then incubated on a plate shaker overnight at 4° C. Plates were washed 3× with MSD wash buffer and 50 μL of rabbit anti-pASK1 T838 antibody was added to the wells and incubated for 2 hr at room temperature on a plate shaker. Plates were then washed and 50 μL of goat anti-rabbit sulfa-tag (1:500 dilution) was added to wells, and incubated for 1 hr at room temperature on a plate shaker. Plates were washed 3× and 150 μL of 2×MSD Read buffer was added to wells. Plates were immediately read on a MSD Instrument Reader where chemoluminecense signal was measured. Data was analyzed using Graph Pad or Genedata, the data was normalized and plotted, % activity versus log of compound concentration. The IC50 values were obtained from a 4 parameter fit.

Data set [2] addresses T2, GST-hASK1 (Homo sapiens, UniProt Q99683).
T2 construct: GST (N); purchased Life Technologies PV4011
T2 sequence (Q99683 1-1374): T1 sequence (Q99683 1-1374)
Kind of data set: ASK1 TR-FRET assay. Conditions: 5 nM GST-hASK1, 100 μM ATP, 2 μM STK Substrate 3. It counts as biochemical. How it is done: The protein kinase activity of 5 nM GST-hASK1 (Life Technologies PV4011) was assayed with 100 μM ATP and 2 μM of HTRF biotinylated STK Substrate 3 (CisBio Kit 62ST3PEJ), at ambient temperature in 25 mM Hepes, pH 7.5, 50 mM NaCl, 10 mM MgCl2, 0.02% Brij-35, 1 mM DTT, and 1% DMSO.
Briefly, 20 μL aliquots of a 1.5× stock of ASK1, STK Substrate 3 and Assay Buffer were distributed in the wells of a white 384 well Optiplate, prior to addition of 0.3 μL of a 100× compound stock in DMSO, or DMSO alone in Blank and 100% Activity Controls. After a 10 minute pre-incubation, ASK1 protein kinase activity was initiated by addition of 10 μL of 300 μM ATP. After 5 hours, the kinase activity was quenched by addition of 30 μL of CisBio Kit 62ST3PEJ components: 0.5 μM of Streptavidin XL665; and 100×STK Antibody-Eu Cryptate; in Detection Buffer containing sufficient EDTA to chelate Mg^2+ in the assay buffer. The plates were read after 65 minutes in an Envision Plate reader, with the following components and settings: Top Mirror, Lance Delfia Dual (662); UV Ex Filter, 320 nm (111); Emission Filter for donor, 615 nm (203); Emission Filter for Acceptor; 665 nm (205); and 100 μsec delay, with 665/615 ratio output. […]

The nature of data set [3]: In vivo brain penetration (rat Kpuu). Conditions: brain and plasma (unbound concentrations), IV infusion four hours, 1 mg/kg, steady state.
Method: To evaluate the CNS penetration of the compounds described herein, several compounds were selected for in vivo rat Kpuu studies. In these experiments the compounds are administered via an IV infusion (using N,N-dimethylacetamide:ethanol:1,2-propylene glycol:water in a 1:1:3:5 ratio as the vehicle) in the carotid artery for a period of four hours (1 mg/kg, 0.1 mg/mL) to reach steady state. After this time the plasma and brain concentration levels are quantified, and the values are adjusted by the measured protein binding in plasma and brain homogenate to calculate the K puu (see Di, L.; Kerns, E. H. Blood-Brain Barrier in Drug Discovery (Wiley)) according to the equation below. […]
Plasma and brain protein binding values were generated via the Rapid Equilibrium Dialysis method. […] At the conclusion of incubation samples were taken from both matrix and buffered compartments, matrix-matched using blank buffer and matrix, extracted with acetonitrile, diluted with water, and analyzed utilizing an Agilent RapidFire 365 high-throughput LC coupled with MS/MS detection via an AB Sciex 5500. Free fractions (fu) were then calculated by comparing internal standard/analyte peak-area ratios of matrix and buffered compartments.
Total drug concentration in plasma and brain tissue was measured via well-established bioanalytical extraction (protein precipitation) and detection methods (LC-MS/MS). […]
Data set [4] deals with T3, MDR1 (Homo sapiens, UniProt P08183).
T3 construct: host or cells: MDCK
As to the kind of experiment: MDR1-MDCK assay. It counts as in vitro ADME. Conditions: read-out: in vitro ER (efflux ratio).
Method: To predict the CNS penetration of the compounds described herein, several compounds were selected for an in vitro MDR1-MDCK assay. These experiments are conducted using human MDR1 transfected MDCK cells (Absorption Systems, Exton, PA) and the compounds are tested at 1 μM concentration prepared in transport buffer (Hank's balanced salt solution with HEPES) and following the steps below: • 1. MDR1-MDCK cell are cultured for 7 days in 96 well transwell insert plates (Corning). Insert plates are washed before the assay and TEER (trans epithelial electric resistance) is measured. • 2. These plates are loaded with test compound solution 85 μL for A-B transport and 260 μL for B-A transport in the respective donor compartment. The volume of receiver buffer (Transport buffer supplemented with 1% BSA) in the respective receiver compartment is 250 μL and 75 μL. • 3. 10 μL samples is taken from donor compartment (T=0 timepoint) • 4. Assay plates are incubated for 120 minutes. • 5. At 120 minutes (T=120 timepoint) samples from respective donor (10 μL) and receiver (50 μL) compartments is taken. • 6. After addition of 40 μL transport buffer with BSA to donor samples, crash solution (Acetonitrile with internal standard, 110 μL) is added to all samples. • 7. […] Samples are analyzed using LC-MS/MS coupled with high throughput injection system. • 9. […]

In data set [5] the target is T4, ASK1/MAP3K5 (Homo sapiens, UniProt Q99683).
T4 construct: purchased Reaction Biology Corp. (Malvern, PA)
T4 sequence (Q99683 1-1374): T1 sequence (Q99683 1-1374)
Kind of data set: ASK1/MAP3K5 assay by Reaction Biology Corp. (33P-ATP filter-binding). The format is biochemical. Conditions: 20 μM MBP, 100 μM ATP. How it is done:
Alternatively, the protein kinase inhibitory activity of the compounds described herein were tested using the ASK1/MAP3K5 assay by Reaction Biology Corp. (Malvern, PA). The assay procedure follows (and is also available on the Reaction Biology Corp. website). • Base Reaction Buffer: 20 mM Hepes (pH 7.5), 10 mM MgCl2, 1 mM EGTA, 0.02% Brij35, 0.02 mg/mL BSA, 0.1 mM Na3VO4, 2 mM DTT, 1% DMSO; • Substrate: 20 μM of myelin basic protein (MBP) and 100 μM ATP; • Protein kinase: ASK1/MAP3K5. Reaction Procedure: • 1. Prepare indicated substrate in freshly prepared Base Reaction Buffer. • 2. Deliver any required cofactors to the substrate solution. • 3. Deliver indicated kinase into the substrate solution and gently mix. • 4. Deliver compounds in DMSO into the kinase reaction mixture by Acoustic; technology (Echo550; nanoliter range), incubate for 20 minutes at room temperature. • 5. Deliver ^33P-ATP (specific activity 10 μCi/μL) into the reaction mixture to initiate the reaction. • 6. Incubate kinase reaction for 2 hours at room temperature. • 7. Reactions are spotted onto P81 ion exchange paper. • 8. Detect kinase activity by filter-binding method.

Bounds are passed on as bounds.

T3 sequence (P08183 whole entry): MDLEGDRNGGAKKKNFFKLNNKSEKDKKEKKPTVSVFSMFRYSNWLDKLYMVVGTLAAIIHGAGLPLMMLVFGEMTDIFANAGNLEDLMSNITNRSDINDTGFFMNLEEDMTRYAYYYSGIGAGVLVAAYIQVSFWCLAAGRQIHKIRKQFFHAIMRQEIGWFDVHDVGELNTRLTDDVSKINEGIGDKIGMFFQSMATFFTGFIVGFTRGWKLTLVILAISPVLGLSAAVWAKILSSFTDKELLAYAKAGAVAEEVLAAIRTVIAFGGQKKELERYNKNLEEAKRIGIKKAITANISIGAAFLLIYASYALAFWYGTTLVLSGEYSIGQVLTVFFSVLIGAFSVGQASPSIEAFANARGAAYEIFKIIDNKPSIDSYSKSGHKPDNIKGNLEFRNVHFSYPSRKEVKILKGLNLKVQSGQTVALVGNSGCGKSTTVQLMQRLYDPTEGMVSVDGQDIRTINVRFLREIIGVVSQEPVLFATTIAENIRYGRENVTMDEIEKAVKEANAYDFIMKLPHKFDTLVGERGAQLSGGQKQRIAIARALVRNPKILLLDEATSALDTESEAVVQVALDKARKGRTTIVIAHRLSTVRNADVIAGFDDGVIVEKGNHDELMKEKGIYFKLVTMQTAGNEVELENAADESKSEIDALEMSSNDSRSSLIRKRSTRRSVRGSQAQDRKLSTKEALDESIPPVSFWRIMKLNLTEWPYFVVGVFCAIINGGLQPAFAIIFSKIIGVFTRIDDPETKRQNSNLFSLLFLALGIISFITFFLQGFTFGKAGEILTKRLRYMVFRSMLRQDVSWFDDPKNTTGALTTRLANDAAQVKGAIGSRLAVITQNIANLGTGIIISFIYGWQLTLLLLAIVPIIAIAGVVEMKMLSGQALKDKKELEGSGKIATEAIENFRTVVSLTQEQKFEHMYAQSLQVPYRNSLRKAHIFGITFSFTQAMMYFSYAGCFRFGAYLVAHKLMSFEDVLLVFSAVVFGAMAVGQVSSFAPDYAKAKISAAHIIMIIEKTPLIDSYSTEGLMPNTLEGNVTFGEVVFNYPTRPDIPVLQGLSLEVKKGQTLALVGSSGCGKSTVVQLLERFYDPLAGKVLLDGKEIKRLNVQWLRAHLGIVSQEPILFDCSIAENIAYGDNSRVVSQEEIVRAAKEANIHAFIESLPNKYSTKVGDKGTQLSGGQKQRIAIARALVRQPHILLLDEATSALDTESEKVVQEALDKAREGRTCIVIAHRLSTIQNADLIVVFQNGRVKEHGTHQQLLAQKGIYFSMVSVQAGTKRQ

`COc1ncccc1C(=O)Nc1cccc(-c2nncn2C(C)C)n1` [Compound 1, N-(6-(4-Isopropyl-4H-1,2,4-triazol-3-yl)pyridin-2-yl)-2-methoxynicotinamide]: the IC50 in data set [1] was no more than 1000 nM; in data set [2], less than 100 nM.

`COc1ncccc1C(=O)Nc1cccc(-c2nncn2C2(C(F)(F)F)CC2)n1` [Compound 16, 2-Methoxy-N-(6-(4-(1-(trifluoromethyl)cyclopropyl)-4H-1,2,4-triazol-3-yl)pyridin-2-yl)nicotinamide]: the figures for the IC50 in data set [1] and in data set [5] were no more than 1000 nM and no more than 100 nM, respectively. Besides, in data set [3], the Kp uu at 4 h was 0.41. For the same compound, the efflux ratio at 120 min, 1 μM in data set [4] is less than 3.
